Experimental data as given in EP4032896A1, “THIAZOLOPYRIMIDONES AS INHIBITORS OF DDR1/2 AND THERAPEUTIC USES THEREOF” (Fundación del Sector Público Estatal Centro Nacional de …, priority 2021, dated 2022).

Key:
[1] = target: T1, DDR1 (Homo sapiens, UniProt Q08345); test: LanthaScreen Eu-Kinase Binding Assay (TR-FRET tracer displacement), DDR1; conditions: catalytic domain GST Tag DDR1; Kinase Tracer 178
T1 construct: The enzymes were purchased as a catalytic domain GST Tag DDR1(#PR6913A); purchased ThermoFisher PR6913A
T1 sequence (Q08345 610-905 limits assumed): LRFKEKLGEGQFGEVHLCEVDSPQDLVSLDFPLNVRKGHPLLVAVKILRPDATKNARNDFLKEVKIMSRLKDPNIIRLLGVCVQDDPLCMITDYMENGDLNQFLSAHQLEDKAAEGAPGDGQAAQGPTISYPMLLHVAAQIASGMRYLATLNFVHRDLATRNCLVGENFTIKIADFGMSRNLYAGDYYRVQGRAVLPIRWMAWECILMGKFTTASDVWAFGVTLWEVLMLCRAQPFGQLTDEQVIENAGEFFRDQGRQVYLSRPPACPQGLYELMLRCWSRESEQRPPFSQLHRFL
Source text: (§1) DDR1/2 binding assay: The binding assay relies on the LanthaScreen ™ Eu-Kinase Binding Assay (ThermoFisher Scientfic). This is a kinase assay platform based on measuring the binding and displacement of an Alexa Fluor® conjugate of an ATP-competitive kinase inhibitor or tracer at a kinase active site (Kinase Tracer 178. #PV5593). Binding of the tracer to the kinase is detected by addition of a europium (Eu)-labeled anti-GST antibody (#PV 5594) which specifically labels the kinase of interest. This binding results in a high degree of fluorescence resonance energy transfer (FRET), whereas displacement of the tracer with a kinase inhibitor results in a loss of FRET. The enzymes were purchased as a catalytic domain GST Tag DDR1(#PR6913A) and DDR2 (#PR7167A) from ThermoFisher. Assay conditions were as indicated by the kit manufacturers. Assays were performed in 384-well plates. The final read out was generated using an EnVision plate reader (Perkin-Elmer). The emission ratio was calculated by dividing the acceptor/tracer emission (665 nm) by the antibody/donor emission (615 nm). Values were plotted against the inhibitor concentration and fit to a sigmoid dose-response curve using Activity base by IDBS software.

[2] = target: T2, DDR1 (Mus musculus, UniProt Q03146); test: Cellular assay: inhibition of Collagen I-induced DDR1 autophosphorylation in HEK293T cells transiently transfected with DDR1 plasmid (Western blot); format: cell-based, human; conditions: pcDNA3.1 DDR1 WT mouse plasmid, compound 1 h, then 10 µg/mL Collagen I 1 h, P-DDR1 (Y513), read-out: pDDR1 EC50
T2 construct: expressed in transfected cells; host or cells: HEK293T
T2 sequence (Q03146 20-911): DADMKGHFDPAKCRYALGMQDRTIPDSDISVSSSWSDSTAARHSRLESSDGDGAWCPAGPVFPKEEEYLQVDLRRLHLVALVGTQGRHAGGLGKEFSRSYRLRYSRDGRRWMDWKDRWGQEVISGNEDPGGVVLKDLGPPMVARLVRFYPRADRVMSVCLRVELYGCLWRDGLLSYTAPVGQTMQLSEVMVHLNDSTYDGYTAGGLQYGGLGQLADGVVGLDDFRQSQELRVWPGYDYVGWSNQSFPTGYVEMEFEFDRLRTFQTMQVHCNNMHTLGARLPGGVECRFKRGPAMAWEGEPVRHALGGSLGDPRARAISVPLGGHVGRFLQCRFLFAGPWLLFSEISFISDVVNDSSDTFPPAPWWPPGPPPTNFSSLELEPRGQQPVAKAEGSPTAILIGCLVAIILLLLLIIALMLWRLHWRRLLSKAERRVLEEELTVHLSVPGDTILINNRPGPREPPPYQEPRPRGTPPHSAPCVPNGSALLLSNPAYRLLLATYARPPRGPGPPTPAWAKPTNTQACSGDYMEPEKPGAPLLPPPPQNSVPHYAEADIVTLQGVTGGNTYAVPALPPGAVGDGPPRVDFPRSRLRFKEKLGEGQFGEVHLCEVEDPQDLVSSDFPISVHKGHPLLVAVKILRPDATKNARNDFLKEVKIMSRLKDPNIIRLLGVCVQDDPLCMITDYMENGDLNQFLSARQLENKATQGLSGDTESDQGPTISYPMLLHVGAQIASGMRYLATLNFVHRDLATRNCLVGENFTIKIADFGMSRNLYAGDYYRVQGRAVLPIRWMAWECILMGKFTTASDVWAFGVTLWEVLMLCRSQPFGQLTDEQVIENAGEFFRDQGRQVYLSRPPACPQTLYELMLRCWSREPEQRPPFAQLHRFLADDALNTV
Experimental: DDR1/2 cellular assay: Transient transfection of HEK293T cells with DDR1 plasmid is used to study the inhibition of the autophosphorylation of DDR1 induced by Collagen I in cells. HEK293T are seeded, 6x10^5 cells per well in 6-well plates and incubated for 6 h at 37 °C, 5% CO2. Then, cells are transfected using Effectene reactive (Quiagen) with pcDNA3.1 DDR1 WT mouse plasmid. Cells are incubated with transfection complexes under normal growth conditions for 24 h. After that, medium is replaced with fresh medium and cells are incubated for an additional 18 h. Eight serial 1:3 compound dilutions are made in DMSO. The compounds are added to each well of 6 well cell plates and are incubated at 37 °C under CO2 atmosphere 1 h. DDR1's autophosphorylation is stimulated by 1h treatment with 10 µg/mL Collagen I. Then, cells are washed in PBS, lyse adding 100 µl of complete RIPA protein lysis buffer (RIPA Buffer, 1 mM DTT, 5 mM Bezamidine, 10 µg/mL Aprotinin, 10 µg/mL Leupeptin, 710 ng/mL Pepstatin A, 100 µg/mL Trypsin Inhibitor, 40 µg/mL Bestatin, completed with PhosSTOP EASYpack and complete Mini, EDTA-free) and incubated 20 minutes at 4 °C and then centrifugated. Lysates are kept at -80 °C. The protein content of the lysates is determined by DC protein assay (Biorad, Ref. 5000116). The proteins are resolved by SDS-PAGE and transferred to nitrocellulose membrane (GE Healthcare #10600003). The membranes are incubated overnight at 4 °C with antibodies specific for DDR1 (D1G6) (Cell signaling #5583), P-DDR1 (Y513) (E1N8F) (Cell Signaling # 14531) they are washed and then incubated with Alexa Fluor 680 goat anti-rabbit IgG secondary antibodies (Invitrogen, A21076). The bands are visualized and quantified using an Odyssey infrared imaging system (Li-Cor Biosciences). The percentage of DDR1 phosphorylation is finally plotted against concentration for each compound and EC50s for intracellular DDR1 inhibition are calculated using ActivityBase from IDBS.

[3] = target: T3, DDR2 (Homo sapiens, UniProt Q16832); test: LanthaScreen Eu-Kinase Binding Assay (TR-FRET tracer displacement), DDR2; conditions: catalytic domain GST Tag DDR2; Kinase Tracer 178
T3 construct: The enzymes were purchased as a catalytic domain GST Tag DDR1(#PR6913A) and DDR2 (#PR7167A); purchased ThermoFisher PR7167A
T3 sequence (Q16832 563-849 limits assumed): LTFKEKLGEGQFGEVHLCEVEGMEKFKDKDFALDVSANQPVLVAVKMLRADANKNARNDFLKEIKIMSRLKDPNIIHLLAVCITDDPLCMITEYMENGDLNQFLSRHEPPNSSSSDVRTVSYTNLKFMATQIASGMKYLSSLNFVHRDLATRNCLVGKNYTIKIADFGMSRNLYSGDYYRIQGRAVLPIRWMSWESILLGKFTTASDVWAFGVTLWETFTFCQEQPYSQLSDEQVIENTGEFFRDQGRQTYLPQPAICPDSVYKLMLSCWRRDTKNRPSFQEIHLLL
Source text: as §1

Structure (SMILES)	IC50 [1] [nM]	EC50 [2] [nM]	IC50 [3] [nM]
CCc1cc(=O)n2c(-c3ccccc3)c(-c3ccnc(Nc4cccc(N5CCN(CCO)CC5)c4)n3)sc2n1 [Compound 74, 7-Ethyl-2-(2-{3-[4-(2-hydroxy-ethyl)-piperazin-1-yl]-phenylamino}-pyrimidin-4-yl)-3-phenyl-thiazolo[3,2-a]pyrimidin-5-one]	12.9	39.5	11.6
O=c1ccnc2sc(-c3ccnc(Nc4cccc(N5CCN(CCO)CC5)c4)n3)c(C3CCOCC3)n12 [Compound 66, 2-(2-{3-[4-(2-Hydroxy-ethyl)-piperazin-1-yl]-phenylamino}-pyrimidin-4-yl)-3-(tetrahydropyran-4-yl)-thiazolo[3,2-a]pyrimidin-5-one]	321	610	1480
NS(=O)(=O)c1cccc(Nc2nccc(-c3sc4nccc(=O)n4c3-c3cccc(Cl)c3)n2)c1 [Compound 40, 3-{4-[3-(3-Chloro-phenyl)-5-oxo-5H-thiazolo[3,2-a]pyrimidin-2-yl]-pyrimidin-2-ylamino}-benzenesulfonamide]	16.4	113	61.6
COc1ccc(-c2c(-c3ccnc(Nc4cccc(N5CCN(CCO)CC5)c4)n3)sc3nccc(=O)n23)cc1 [Compound 53, 2-(2-{3-[4-(2-Hydroxy-ethyl)-piperazin-1-yl]-phenylamino}-pyrimidin-4-yl)-3-(4-methoxy-phenyl)-thiazolo[3,2-a]pyrimidin-5-one]	5.46	19.3	16.8
CN1CCN(c2ccc(Nc3nccc(-c4sc5nccc(=O)n5c4-c4cccc(O)c4)n3)cc2)CC1 [Compound 56, 3-(3-Hydroxy-phenyl)-2-{2-[4-(4-methyl-piperazin-1-yl)-phenylamino]-pyrimidin-4-yl}-thiazolo[3,2-a]pyrimidin-5-one]	5.63	12.2	17.5
CC(C)c1c(-c2ccnc(Nc3cccc(N4CCN(CCO)CC4)c3)n2)sc2nccc(=O)n12 [Compound 64, 2-(2-{3-[4-(2-Hydroxy-ethyl)-piperazin-1-yl]-phenylamino}-pyrimidin-4-yl)-3-isopropyl-thiazolo[3,2-a]pyrimidin-5-one]	15.3	58.7	90.6
COc1cccc(-c2c(-c3ccnc(Nc4cccc(S(N)(=O)=O)c4)n3)sc3nccc(=O)n23)c1 [Compound 49, 3-{4-[3-(3-Methoxy-phenyl)-5-oxo-5H-thiazolo[3,2-a]pyrimidin-2-yl]-pyrimidin-2-ylamino}-benzenesulfonamide]	20.9	99.8	103

Further molecules by falling IC50 [1], results first:

IC50 [1] [nM]	EC50 [2] [nM]	IC50 [3] [nM]	Structure (SMILES)
147	34.6	423	CCOC(=O)c1cnc2sc(-c3ccnc(Nc4cccc(N5CCN(CCO)CC5)c4)n3)c(-c3ccccc3)n2c1=O [Compound 71, 2-(2-{3-[4-(2-Hydroxy-ethyl)-piperazin-1-yl]-phenylamino}-pyrimidin-4-yl)-5-oxo-3-phenyl-5H-thiazolo[3,2-a]pyrimidine-6-carboxylic acid ethyl ester]
21.1	33.4	79	COc1cccc(-c2c(-c3ccnc(Nc4cccc(N5CCN(CCO)CC5)c4)n3)sc3nccc(=O)n23)c1 [Compound 50, 2-(2-{3-[4-(2-Hydroxy-ethyl)-piperazin-1-yl]-phenylamino}-pyrimidin-4-yl)-3-(3-methoxy-phenyl)-thiazolo[3,2-a]pyrimidin-5-one]
15.5	192	18	O=c1ccnc2sc(-c3ccnc(Nc4cccc(N5CCN(CCO)CC5)c4)n3)c(-c3ccccc3)n12 [Compound 31, 2-(2-{3-[4-(2-Hydroxy-ethyl)-piperazin-1-yl]-phenylamino}-pyrimidin-4-yl)-3-phenyl-thiazolo[3,2-a]pyrimidin-5-one]
11.6	31.4	29	NS(=O)(=O)c1cccc(Nc2nccc(-c3sc4nccc(=O)n4c3-c3ccc(Cl)cc3)n2)c1 [Compound 43, 3-{4-[3-(4-Chloro-phenyl)-5-oxo-5H-thiazolo[3,2-a]pyrimidin-2-yl]-pyrimidin-2-ylamino}-benzenesulfonamide]
9.5	27.8	24.4	COc1ccccc1-c1c(-c2ccnc(Nc3cccc(N4CCN(CCO)CC4)c3)n2)sc2nccc(=O)n12 [Compound 47, 2-(2-{3-[4-(2-Hydroxy-ethyl)-piperazin-1-yl]-phenylamino}-pyrimidin-4-yl)-3-(2-methoxy-phenyl)-thiazolo[3,2-a]pyrimidin-5-one]
5.3	30.6	20.1	COc1ccccc1-c1c(-c2ccnc(Nc3cccc(S(N)(=O)=O)c3)n2)sc2nccc(=O)n12 [Compound 46, 3-{4-[3-(2-Methoxy-phenyl)-5-oxo-5H-thiazolo[3,2-a]pyrimidin-2-yl]-pyrimidin-2-ylamino}-benzenesulfonamide]
4.54	21.1	15	CN1CCN(c2ccc(Nc3nccc(-c4sc5nccc(=O)n5c4-c4ccc(O)cc4)n3)cc2)CC1 [Compound 57, 3-(4-Hydroxy-phenyl)-2-{2-[4-(4-methyl-piperazin-1-yl)-phenylamino]-pyrimidin-4-yl}-thiazolo[3,2-a]pyrimidin-5-one]
4.19	18.2	28.8	COc1ccc(-c2c(-c3ccnc(Nc4ccc(N5CCN(C)CC5)cc4)n3)sc3nccc(=O)n23)cc1 [Compound 54, 3-(4-Methoxy-phenyl)-2-{2-[4-(4-methyl-piperazin-1-yl)-phenylamino]-pyrimidin-4-yl}-thiazolo[3,2-a]pyrimidin-5-one]
